Read-outs that look alike come from different tables or passages of the source.
What was measured:
HIV-1IIIB = assay: HIV-1 cytoprotection (CPE reduction) antiviral assay; format: cell-based; settings: for inhibition at 10 µM: read-out: CPE reduction %; for antiviral activity, in words: single concentration 10 μM, CPE assay
Procedure: (§1) The antiviral activity of newly synthesized analogues of chemotype 7 was evaluated against HIV-1IIIB in CEM-SS cells using an assay based on viral cytopathic effect (CPE). In this assay, the reduction of CPE was used to indicate the antiviral activity of a compound.
Briefly virus and cells were mixed in the presence of test compound and incubated for 6 days. […] Each assay plate contained cell control wells (cells only), virus control wells (cells plus virus), compound toxicity control wells (cells plus compound only), compound colorimetric control wells (compound only) as well as experimental wells (compound plus cells plus virus). Cytoprotection and compound cytotoxicity were assessed by MTS (CellTiter® 96 Reagent, Promega, Madison Wis.) and the EC50 (concentration inhibiting virus replication by 50%), CC50 (concentration resulting in 50% cell death) and a calculated TI (therapeutic index CC50/EC50) were provided. Each assay included AZT as a positive control.

[1] = system: HIV-1 clone 8070-1 (G140S/Y143H/Q148H); format: cell-based; settings: EC50(mutant)/EC50(WT)
[2] = system: HIV-1 clone 8070-2 (G140S/Q148H); format: cell-based; settings: EC50(mutant)/EC50(WT)
CEM-SS cells = assay: Compound cytotoxicity (MTS) in the HIV cytoprotection assay; format: cell-based; settings: for CC50: Concentration resulting in 50% cell death; for Cell viability %: 10 μM, CEM-SS cells
Procedure: as §1
(§2) Briefly virus and cells were mixed in the presence of test compound and incubated for 6 days. […] Each assay plate contained cell control wells (cells only), virus control wells (cells plus virus), compound toxicity control wells (cells plus compound only), compound colorimetric control wells (compound only) as well as experimental wells (compound plus cells plus virus). […] Each assay included AZT as a positive control.

[3] = system: HIV-1 clone 1556-1 (Y143C); format: cell-based; settings: EC50(mutant)/EC50(WT)
[4] = system: HIV-1 clone 4736-2 (N155H); format: cell-based; settings: EC50(mutant)/EC50(WT)
HIV-1 integrase = biological target: T1, HIV-1 integrase (Human immunodeficiency virus type 1 group M subtype B, UniProt P04585); assay: HIV-1 integrase strand transfer (INST) assay; format: biochemical
T1 construct: HIV integrase was expressed and purified as previously reported; made in house; host or cells: Escherichia coli
Procedure: HIV integrase was expressed and purified as previously reported.^43 Inhibition assays were performed using a modified protocol of a reported method.^43 Briefly, 2.1 μL of compound suspended in DMSO was placed in duplicate into a Black 96 well non-binding plate (coming 3991). Compounds were plated in duplicate to a final concentration of 0.13-100 μM. To each well of the plate 186.9 μL of reaction mixture without DNA substrate was added (10 mM HEPES pH 7.5, 10% glycerol w/v, 10 mM MnCl2, 1 mM DTT, 1 μM integrase). The enzyme was incubated with inhibitor for 10 min at 25° C. after which the reaction was initiated by the addition of 21 μL of 500 nM oligo (5′ biotin […] annealed with […] 3′ Cy5). Reactions were incubated at 37° C. for 30 min and then quenched by the addition of 5.2 μL 500 mM EDTA. Each reaction was moved (200 μL) to a MultiScreen HTS PCR plate (Millipore MSSLBPC10) containing 20 μL streptavidin agarose beads (Life Technologies S951) and incubated with shaking for 30 min. A vacuum manifold was used to remove the reaction mixture and the beads were similarly washed 3 times with wash buffer (0.05% SDS, 1 mM EDTA in PBS). The plates were further washed 3 times with 200 μL 50 mM NaOH to denature DNA not covalently linked to the biotin modification. For each denaturation step the plate was incubated with shaking at 25° C. for 5 min and the NaOH was removed by centrifugation at 1000 g for 1 min. The reaction products were eluted from the beads by the addition of 150 μL formamide. The plate was incubated at 25° C. for 10 min and read directly at 635/675 in a SpectraMax i3 plate reader (Molecular Devices). Expression and purification of the recombinant IN in Escherichia coli were performed as previously reported^39, 44 with addition of 10% glycerol to all buffers. Preparation of oligonucleotide substrates has been described.^45 Integrase reactions were performed in 10 μL with 400 nM of recombinant IN, 20 nM of 5′-end [^32P]-labeled oligonucleotide substrate and inhibitors at various concentrations. Solutions of 10% DMSO without inhibitors were used as controls. Reactions were incubated at 37° C. (60 minutes) in buffer containing 50 mM MOPS, pH 7.2, 7.5 mM MgCl2, and 14.3 mM 2-mercaptoethanol. Reactions were stopped by addition of 10 μL of loading dye (10 mM EDTA, 98% deionized formamide, 0.025% xylene cyanol and 0.025% bromophenol blue). Reactions were then subjected to electrophoresis in 20% polyacrylamide-7 M urea gels. Gels were dried and reaction products were visualized and quantitated with a Typhoon 8600 (GE Healthcare, Little Chalfont, Buckinghamshire, UK). Densitometric analyses were performed using ImageQuant from Molecular Dynamics Inc. The concentrations at which enzyme activity was reduced by 50% (IC50) were determined using “Prism” software (GraphPad Software, San Diego, Calif.) for nonlinear regression to fit dose-response data to logistic curve models.

[5] = Compound cytotoxicity (MTS) in the HIV cytoprotection assay; format: cell-based; settings: human
Procedure: as §1, §2

[6] = Aqueous stability in DPBS; format: physicochemical; settings: DPBS (37° C.) over a 24 h period
Procedure: To assess drug-like properties of chemotype 7, selected analogues were tested in various in vitro ADME studies (Table 5). Aqueous stability and solubility were evaluated in Dulbecco's Phosphate-Buffered Saline (DPBS). […] Assessment of plasma and microsomal stability as well as plasma protein binding was done in two species, human and mouse. […] Microsomal stability of the compounds were evaluated in liver microsomes using either NADPH (phase I) or UDPGA (phase II) as cofactor.

[7] = Human immunodeficiency virus 1, CEM-SS
[8] = Human immunodeficiency virus 1, summary of Table 2, read-out: EC50
[9] = Human immunodeficiency virus 1, 10 μM, HIV-1IIIB in CEM-SS cells

SMILES	CC50 (CEM-SS cells) [nM]	IC50 (HIV-1 integrase; read-out: INST IC50) [nM]	Cell viability % (CEM-SS cells) [%]	inhibition at 10 µM (HIV-1IIIB; [9]) [%]	EC50 (HIV-1IIIB; Human immunodeficiency virus 1) [nM]	other results
Cc1cn([C@H]2C[C@H](N=[N+]=[N-])[C@@H](CO)O2)c(=O)[nH]c1=O [AZT, reference compound]	> 10000					EC50 (HIV-1IIIB; Concentration inhibiting virus replication by 50%, dose response, read-out: EC50): 80 nM; Fold-resistance [1]: 0.9; Fold-resistance [2]: 0.5; Fold-resistance [3]: 1.4; Fold-resistance [4]: 0.7
CCNc1[nH]c(=O)n(O)c(=O)c1C(=O)NCc1cc(F)ccc1F [Compound 7-xvii, N-(2,5-Difluorobenzyl)-1-(hydroxy)-4-(ethylamino)-1,2,3,6-tetrahydro-2,6-dioxopyrimidine-5-carboxamide]		68 ± 11	92			inhibition at 10 µM (HIV-1IIIB; [7]): 100%; EC50 (HIV-1IIIB; Human immunodeficiency virus 1, Concentration inhibiting virus replication by 50%, dose response, read-out: EC50): 32 nM; EC50 (HIV-1IIIB; [8]): 15 to 61 nM; IC50 (HIV-1 integrase; read-out: IC50 (ST)): 21 to 77 nM; CC50 at 6 days [5]: 47000 nM
CCNc1[nH]c(=O)n(O)c(=O)c1C(=O)NCc1ccc(F)cc1F [Compound 7-xviii, N-(2,4-Difluorobenzyl)-1-(hydroxy)-4-(ethylamino)-1,2,3,6-tetrahydro-2,6-dioxopyrimidine-5-carboxamide]		48 ± 7	87	92		
CCNc1[nH]c(=O)n(O)c(=O)c1C(=O)NCc1ccc(F)c(F)c1 [Compound 7-xx, N-(3,4-Difluorobenzyl)-1-(hydroxy)-4-(ethylamino)-1,2,3,6-tetrahydro-2,6-dioxopyrimidine-5-carboxamide]	21000	77 ± 11	100		49	inhibition at 10 µM (HIV-1IIIB; [7]): 100%; EC50 (HIV-1IIIB; [8]): 15 to 61 nM; IC50 (HIV-1 integrase; read-out: IC50 (ST)): 21 to 77 nM
CCNc1[nH]c(=O)n(O)c(=O)c1C(=O)NCc1cc(F)ccc1Cl [Compound 7-xxi, N-(2-Chloro-5-fluorobenzyl)-1-(hydroxy)-4-(ethylamino)-1,2,3,6-tetrahydro-2,6-dioxopyrimidine-5-carboxamide]		95 ± 19	73	62		
CCNc1[nH]c(=O)n(O)c(=O)c1C(=O)NCc1ccc(Cl)c(F)c1 [Compound 7-xxii, N-(4-Chloro-3-fluorobenzyl)-1-(hydroxy)-4-(ethylamino)-1,2,3,6-tetrahydro-2,6-dioxopyrimidine-5-carboxamide]	19000	120 ± 21	100	100	190	remaining in DPBS [6]: 86%
CCNc1[nH]c(=O)n(O)c(=O)c1C(=O)NCc1cccc(Cl)c1F [Compound 7-xxiii, N-(3-Chloro-2-fluorobenzyl)-1-(hydroxy)-4-(ethylamino)-1,2,3,6-tetrahydro-2,6-dioxopyrimidine-5-carboxamide]	18000	21 ± 2	100	100	15	Fold-resistance [1]: 6.3; Fold-resistance [2]: 13; Fold-resistance [3]: 0.4; Fold-resistance [4]: 2.4
CCNc1[nH]c(=O)n(O)c(=O)c1C(=O)NCc1ccc(C)c(F)c1 [Compound 7-xxiv, N-(3-Fluoro-4-methylbenzyl)-1-(hydroxy)-4-(ethylamino)-1,2,3,6-tetrahydro-2,6-dioxopyrimidine-5-carboxamide]	20000	51 ± 13	100	100	150	
CCNc1[nH]c(=O)n(O)c(=O)c1C(=O)Nc1ccccc1 [Compound 7-xxv, 1-(Hydroxy)-4-(ethylamino)-1,2,3,6-tetrahydro-2,6-dioxo-N-phenylpyrimidine-5-carboxamide]		35000 ± 17000	27	11		antiviral activity, in words (HIV-1IIIB): complete loss of activity
CCNc1[nH]c(=O)n(O)c(=O)c1C(=O)NCCc1ccccc1 [Compound 7-xxvi, 1-(Hydroxy)-4-(ethylamino)-1,2,3,6-tetrahydro-2,6-dioxo-N-phenethylpyrimidine-5-carboxamide]		100 ± 30	87	99		antiviral activity, in words (HIV-1IIIB): largely retained
CCNc1[nH]c(=O)n(O)c(=O)c1C(=O)NCCCl [Compound 7-xxvii, 1-(Hydroxy)-N-(2-chloroethyl)-4-(ethylamino)-1,2,3,6-tetrahydro-2,6-dioxopyrimidine-5-carboxamide]			100			inhibition at 10 µM (HIV-1IIIB; [7]): 5.1%; antiviral activity, in words (HIV-1IIIB): completely abrogated antiviral activity; inhibition of ST in the ST assay, in words (HIV-1 integrase): none
